{
  "source": "BindingDB's records for doi:10.1021/acs.jmedchem.9b01509",
  "about": "(University of Chemistry and Technology Prague, 2020)",
  "target": "Sarcoplasmic/endoplasmic reticulum calcium ATPase 1 (Oryctolagus cuniculus, UniProt P04191)",
  "sequence (P04191 whole entry)": "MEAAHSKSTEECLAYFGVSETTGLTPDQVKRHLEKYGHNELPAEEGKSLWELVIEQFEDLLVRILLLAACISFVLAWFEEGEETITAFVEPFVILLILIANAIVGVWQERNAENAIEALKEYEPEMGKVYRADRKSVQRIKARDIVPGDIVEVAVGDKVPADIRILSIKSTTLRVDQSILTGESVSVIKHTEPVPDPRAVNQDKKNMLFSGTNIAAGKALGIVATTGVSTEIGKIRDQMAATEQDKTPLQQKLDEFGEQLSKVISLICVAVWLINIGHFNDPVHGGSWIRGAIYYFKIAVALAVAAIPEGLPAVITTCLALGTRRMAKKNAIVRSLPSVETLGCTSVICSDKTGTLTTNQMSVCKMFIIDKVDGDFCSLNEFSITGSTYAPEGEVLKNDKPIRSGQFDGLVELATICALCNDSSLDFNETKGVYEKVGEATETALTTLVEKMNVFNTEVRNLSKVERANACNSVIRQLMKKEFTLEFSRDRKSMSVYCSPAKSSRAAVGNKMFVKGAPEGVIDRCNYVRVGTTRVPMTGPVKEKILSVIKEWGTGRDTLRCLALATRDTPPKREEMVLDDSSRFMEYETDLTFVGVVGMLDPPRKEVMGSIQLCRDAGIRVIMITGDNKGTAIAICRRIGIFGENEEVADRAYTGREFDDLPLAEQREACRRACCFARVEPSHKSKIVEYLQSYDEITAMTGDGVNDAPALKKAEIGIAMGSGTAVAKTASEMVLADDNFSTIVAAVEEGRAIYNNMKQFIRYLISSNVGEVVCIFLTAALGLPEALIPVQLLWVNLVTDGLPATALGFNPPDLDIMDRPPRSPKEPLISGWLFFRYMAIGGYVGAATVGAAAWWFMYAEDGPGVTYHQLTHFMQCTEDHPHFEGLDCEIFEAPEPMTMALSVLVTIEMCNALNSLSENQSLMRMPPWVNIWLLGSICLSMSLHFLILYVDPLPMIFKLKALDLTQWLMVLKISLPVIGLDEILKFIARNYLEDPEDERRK",
  "test": "Inhibition of rabbit SERCA1a preincubated for 10 mins followed by addition of ATP and measured after 10 mins by colorimetric method",
  "data": [
    {"smiles": "CC[C@H](C)[C@H]1O[C@]2(CC[C@@H]1C)C[C@@H]1C[C@@H](C/C=C(\\C)[C@@H](O[C@H]3C[C@H](OC)[C@@H](O[C@H]4C[C@H](OC)[C@@H](O)[C@H](C)O4)[C@H](C)O3)[C@@H](C)/C=C/C=C3\\CO[C@@H]4[C@H](O)C(C)=C[C@@H](C(=O)O1)[C@]34O)O2", "note": "[ABAMECTIN]", "values": [
      {"measurement": "IC50", "result": 15, "unit": "µM"}
    ]}
  ]
}
